Assay results taken from PMC5484485, “In vitro and in vivo effects of kisspeptin antagonists p234, p271, p354, and p356 on GPR54 activation” (PLoS ONE, 2017).
Square brackets hold non-standard residues; d marks the D form. Ends that are not written are not given here.

Target: human GPR54 (Homo sapiens, UniProt Q969F8)
Assay: Flow cytometric calcium flux assay, KP10-induced response after 15 min pre-incubation with antagonist
Format: cell-based
Design: host or cells: rat hematopoietic CHEM1 cells expressing endogenous Galpha15
Details: all concentrations 10^-13 to 10^-5 M; 10^-8 M KP10; 15 min pre-incubation; P = 1.00
Protocol: In vitro analyses of the effects of kisspeptin and kisspeptin antagonists, were performed using HT[…] cells (rat hematopoietic CHEM1 cells expressing endogenous Gα15 and, stably expressing the human GPR54 receptor (Millipore BV, the Netherlands), CHEM1-GPR54. Cells were counted and suspended in HBSS+++ at a concentration of 5*10^6 cells/ml. To load the cells with the fluorescent dye ester they were incubated in HBSS+++ adjusted to a concentration of 2 μM Fluo-3 AM (Molecular Probes, Life Technologies, the Netherlands) for 1h at 37°C under agitation in the dark. After incubation, the cells were washed by adding HBSS+++ to a volume of 10 ml followed by centrifugation (5 min, 150 x g) to remove excess of Fluo-3AM. […] Thereafter the tube was removed briefly and 25 μl peptide (see below) was added, after which aspiration and analysis continued. For statistical analyses fluorescent data recorded during the time interval 30-60 seconds after initiation of measurement were used. […] We then assessed whether these antagonists could compete with KP10 for its receptor. […] For this purpose 25 μl quantities of the antagonists were added to 200 μl of Fluo-3 AM labelled cells (10^6 cells/ml) and incubated for 15 min. […] Peptides p354 and p356 were tested three times with both human and canine KP10; while peptides p234 and p271 were tested three times with human KP10 and once with canine KP10. To analyze the effects of different concentrations of the KP antagonists on the calcium response due to KP10 addition, the differences in fluorescence before and after KP10 were calculated (the calcium response). The calcium response ratios were calculated as the calcium response of the CHEM1-GPR54 cells pre-incubated with different concentrations of KP antagonist and the control (the calcium response of the cells without KP antagonist). These calcium response ratios were log transformed and used for further analysis by univariate analysis of variance, with the Dunnett's test as post hoc test. The calcium response ratios were set as dependent variables and the different concentrations of the antagonists and the two types of KP10 were used as fixed factors. The residuals were normally distributed.

Chain of human GPR54 (Q969F8 whole entry): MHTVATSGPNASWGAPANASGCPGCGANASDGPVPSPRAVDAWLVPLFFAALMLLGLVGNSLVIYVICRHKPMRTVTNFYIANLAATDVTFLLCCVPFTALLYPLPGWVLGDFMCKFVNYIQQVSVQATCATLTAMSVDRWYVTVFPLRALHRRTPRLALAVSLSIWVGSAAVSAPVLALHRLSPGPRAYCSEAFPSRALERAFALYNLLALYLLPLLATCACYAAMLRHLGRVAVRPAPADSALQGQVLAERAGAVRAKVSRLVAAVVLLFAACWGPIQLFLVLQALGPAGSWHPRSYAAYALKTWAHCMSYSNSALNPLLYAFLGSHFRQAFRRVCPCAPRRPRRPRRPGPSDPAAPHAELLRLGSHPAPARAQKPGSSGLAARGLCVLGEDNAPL

difference in calcium response ratio between controls and antagonist: not significant
Substance: RRMKWKKY[dA]NWNGFG[dW]RF-NH2 [p271, p234 with a penetratin tag]
